{"source": "patent US10736973B2", "about": "“Glucose analogs for diagnosis states” (TECHNOLOGY INNOVATION MOMENTUM FUND (ISRAEL) LIMITED …, priority 2014, dated 2020)", "key": {"[1]": {"conditions": "rat, in vivo; cited from earlier work"}, "[2]": {"test_system": "hexokinase", "conditions": "cited from earlier work"}, "[3]": {"test_system": "DA3 tumors", "experiment": "CEST NMR of MCW extracts of tumors from treated mice", "type": "in vivo, BALB/C mice", "conditions": "25 min after 1.5 g/kg; compared with D-glu; B1=2.5 μT, pH=7.0, T=25° C., 11.7 T", "description": "(§1) • Chemicals and Media: 3OMG, D-glucose, D-glucose 6 phosphate, 2-DG and 2-DG-6P sodium salt were obtained from Sigma-Aldrich, Israel; FDG was obtained from Carbosynth Limited, UK. The glucose analogs were prepared at concentration of 10 mM (pH=7.5), containing 10% D2O for NMR field locking. • Cells: DA3-D1-DMBA-3 is a cell line derived from a poorly differentiated mammary adenocarcinoma induced in BALB/C mice by dimethylbenzanthracene. • Animals: BALB/C female mice were purchased and kept in the breeding facility of the Sackler School of Medicine, Tel Aviv University. To induce orthotropic tumors in mice, DA3 cells were injected into the lower left mammary gland of 8 week old (17-22 gr) female BALB/c mice (5×10^5 cells in 100 μL saline). […] Each sample was dissolved in 0.5 ml D2O (99.98%, Biolab, Israel), adjusted at pH=6.5-7 and inserted into 5 mm tube for NMR. • NMR Spectroscopy: 1H NMR Spectra were recorded at 500 MHz in 5 mm tubes on a Bruker 500 MHz DRX with the following parameters: spectral width 7500 Hz, pulse width 5.5 us (corresponding to a 45° flip angle); data size 16 K; relaxation delay 10 s; number of scans=16. […] The chemical exchange contrast was measured by magnetization transfer asymmetry, MTRasym. […]"}, "[4]": {"test_system": "DA3 mammary tumors", "experiment": "In vivo CEST MRI of DA3 mammary tumor bearing mice", "parameters": "species or system BALB/c mice", "description": "CEST MRI experiments were performed on a Bruker 7T Biospec scanner with 30 cm bore size on implanted xenograph mammary tumors of mice before and following the injection of the glucose analog 3OMG. DA3 tumor bearing mice that were allowed to grow for 10-14 days, with an average tumor volume of 5 mm^3 were scanned. The mice were anesthetized using isoflurane (1-2%) and scanned with surface coil. Their temperature was monitored and maintained at 37° C. We performed i.p injections of the contrast medium, 3OMG (in saline, pH=7.4).\nImages were generated as follows: a series of gradient-echo images were collected from a single 1 mm axial slice of (acquisition matrix 128×64, field of view of 40×40 mm2) after 1.2 s presaturation pulse of 2.5 μT (106 Hz) at ±1.2 ppm from the water signal. For the MTRasym plot, the mean intensities were used within the selected region of interest (ROI) within the tumor.\nHaving determined in vitro that 3OMG concentrations of only a few millimolar could be detected with CEST method (FIGS. 1-4), the determination of the potential use of 3OMG CEST MRI to image mammary tumors, in vivo, was carried out. Thus performed 3OMG CEST MRI experiments were carried out on mice bearing DA3 tumors injected with 3OMG glucose analog. Tumor anatomy was initially imaged using T2 weighted spin echo sequence (RARE)."}, "[5]": {"conditions": "in vivo; cited from earlier work"}, "[6]": {"experiment": "CEST NMR of 10 mM glucose analog solutions (MTRasym)", "type": "physicochemical", "conditions": "pH 6.3-7.8 tested, 1.2 ppm, T=25° C., 11.7 T", "description": "as §1"}}}
{"smiles": "O=C[C@H](F)[C@@H](O)[C@H](O)[C@H](O)CO", "note": "[FDG, 2-fluoro-deoxy-D-glucose]", "values": [{"measurement": "Toxicity", "setting": "[1]", "result": "toxic at high concentrations"}]}
{"smiles": "CO[C@@H]([C@H](O)[C@H](O)CO)[C@@H](O)C=O", "note": "[3OMG, 3-O-methylglucose]", "values": [{"measurement": "Phosphorylation", "setting": "[2]", "result": "does not undergo phosphorylation"}, {"measurement": "Substrate for hexokinase", "setting": "[2]", "result": "does not serve as substrate"}, {"measurement": "CEST effect for the peak at 1.2 ppm in combined tumor extracts", "setting": "[3]", "result": "significantly high"}, {"measurement": "CEST enhancement (% CEST increase) in the tumor", "setting": "[4]; i.p. injection 1.5 g/kg, 7T, ±1.2 ppm, 2.5 μT", "result": "about 20%"}, {"measurement": "Time after which the enhanced tumor CEST MRI image started to decay", "setting": "[4]; injection 1.5 g/kg", "result": "> 20", "unit": "min"}, {"measurement": "CEST effect in other organs (apart from the urinary bladder)", "setting": "[4]; injection 1.5 g/kg, throughout the MRI scans session", "result": "did not show any significant CEST effect"}, {"measurement": "Excretion", "setting": "[5]", "result": "entirely excreted by the kidneys"}, {"measurement": "pH at which the CEST effect has its maximum", "setting": "[6]", "result": "~7.5"}]}
{"smiles": "O=CC[C@@H](O)[C@H](O)[C@H](O)CO", "note": "[2-DG, 2-deoxy-D-glucose]", "values": [{"measurement": "Toxic high concentration", "setting": "[1]", "result": 3, "unit": "g/kg"}, {"measurement": "Toxicity", "setting": "[1]", "result": "toxic at high concentrations"}]}
